Data taken from patent publication US20080279907A1, “Antimicrobial medical devices and methods for making and using same” (Ash Access Technology, Inc., priority 2007, published 2008).

Tests used:
[1] = Desorption of parabens from paraben impregnated polycarbonate catheter pieces in 0.24 M sodium citrate pH 6.2 (HPLC); format: physicochemical
Experimental: One inch polycarbonate catheter pieces including a surface area of about 4.64 cm^2 were impregnated with methyl paraben and propyl paraben. A solution of 100% 1,2-propanediol was prepared with 9% methyl paraben and 2% propyl paraben. Pairs of the one inch catheter pieces were placed into three 25 ml flasks including 10 ml of the 1,2-propanediol and paraben solution. The flasks including the catheter pieces were placed on a shaker at 220 rpm and 27° C. for two, four, or nine hour time periods. At the end of each time period, the catheter pieces were removed, rinsed with distilled water, and dried.
Desorption analysis of the paraben impregnated catheter pieces was performed in 0.24 M sodium citrate with a pH of 6.2. The total amount of either methyl paraben or propyl paraben released from the catheter pieces was calculated using HPLC analysis performed with a Waters Alliance 2690 including a 996 Photodiode Array Detector. Each calculation used a solution of HPLC grade H2O, methanol (MeOH), and acetonitrile (CAN) which were pre-filtered through a Millipore 0.45 μm nylon filter before use. Trifluoracetic acid (TFA) was added to H2O and acetonitrile (ACN) to 0.1%. A Waters Symmetry column (C8 3.9×150 mm, 5 μm) was applied with a Waters guard column (Waters, Sentry Guard column, Nova-Pak C18, 60A, 4 μm 3.9×20 mm).
A gradient of 67% H2O/33% ACN was used for 6.5 min, ramped to 45 %/55% from 6.5 to 7.0 min, and kept at 45%/55% until 15.0 min, at 15.0 min the concentration reverted to 67%/33%, and the system was run until 18 min. Injection volume for each sample was 10 μl and samples and column were run at ambient temperature.
Table 2 includes the graphical data represented in FIG. 8 and associated with the desorption of propyl paraben from the paraben impregnated catheter pieces prepared as discussed above. Again, the samples were impregnated only with parabens and desorbed in 10 ml 0.24 M Na-citrate, pH 6.2 over time.

[2] = Perfusion of parabens and methylene blue through polycarbonate membrane in perfusion chamber (HPLC of lower chamber); format: physicochemical
Experimental: An experiment was performed to determine a method for perfusing methylene blue, methyl paraben, and propyl paraben through a polycarbonate membrane with causing only minimal changes to the strength and elasticity of the membrane. In FIG. 12, there is illustrated a perfusion chamber system 50 used during the experiment. System 50 includes an upper chamber 51 and a lower chamber 52 separated by a polycarbonate membrane 53 having a thickness of 0.60 mm. The upper and lower chambers 51, 52 are generally structured to hold 10.5 cm^3 or 10.5 ml of fluid. The upper chamber 51 was connected to a peristaltic pump (not shown) and the lower chamber 52 was filled with distilled water. First and second solutions, respectively including the parabens and the methylene blue, were prepared in accordance with the method set forth in EXAMPLE 6 above. As best seen in Tables 6 and 7 below, the solutions were connected to the pump and passed through the first chamber 51 at a constant rate at 37° C. over various lengths of time.
Table 6 includes data obtained from HPLC analysis comparing the methyl paraben, propyl paraben, and methylene blue concentrations in the lower chamber 52. The parameters for the methyl and propyl paraben and methylene blue treatments are indicated in the left hand columns.

[3] = lower chamber, 20% PG/80% DI H2O (0.9% MP, 0.2% PP) ~9 hrs at 37 C., then MB ~10 days

SMILES: CCCOC(=O)c1ccc(O)cc1 [PP, propyl paraben]
- desorption by the end of the study ([1]; nearly 3 months, FIGS. 8 and 9): negligible desorption
- period of significant release ([1]; paraben impregnated catheter pieces, 0.24 M Na-citrate pH 6.2): 20 days
- Total PP released (mg)/1″ catheter ([1]; treatment 2 hrs (100% PG, 9% MP, 2% PP), time 1 hour): 0.048 mg/1″ catheter
- Total PP released (mg)/1″ catheter ([1]; treatment 2 hrs (100% PG, 9% MP, 2% PP), time 3 hours): 0.081 mg/1″ catheter
- Total PP released (mg)/1″ catheter ([1]; treatment 2 hrs (100% PG, 9% MP, 2% PP), time 7 hours): 0.121 mg/1″ catheter
- Total PP released (mg)/1″ catheter ([1]; treatment 2 hrs (100% PG, 9% MP, 2% PP), time 24 hours): 0.121 mg/1″ catheter
- Total PP released (mg)/1″ catheter ([1]; treatment 2 hrs (100% PG, 9% MP, 2% PP), time 4 days): 0.153 mg/1″ catheter
- Total PP released (mg)/1″ catheter ([1]; treatment 2 hrs (100% PG, 9% MP, 2% PP), time 5 days): 0.182 mg/1″ catheter
- Total PP released (mg)/1″ catheter ([1]; treatment 2 hrs (100% PG, 9% MP, 2% PP), time 6 days): 0.209 mg/1″ catheter
- Total PP released (mg)/1″ catheter ([1]; treatment 2 hrs (100% PG, 9% MP, 2% PP), time 8 days): 0.239 mg/1″ catheter
- Total PP released (mg)/1″ catheter ([1]; treatment 2 hrs (100% PG, 9% MP, 2% PP), time 11 days): 0.264 mg/1″ catheter
- Total PP released (mg)/1″ catheter ([1]; treatment 2 hrs (100% PG, 9% MP, 2% PP), time 13 days): 0.288 mg/1″ catheter
- Total PP released (mg)/1″ catheter ([1]; treatment 2 hrs (100% PG, 9% MP, 2% PP), time 15 days): 0.311 mg/1″ catheter
- Total PP released (mg)/1″ catheter ([1]; treatment 2 hrs (100% PG, 9% MP, 2% PP), time 18 days): 0.332 mg/1″ catheter
- Total PP released (mg)/1″ catheter ([1]; treatment 2 hrs (100% PG, 9% MP, 2% PP), time 22 days): 0.352 mg/1″ catheter
- Total PP released (mg)/1″ catheter ([1]; treatment 2 hrs (100% PG, 9% MP, 2% PP), time 29 days): 0.37 mg/1″ catheter
- Total PP released (mg)/1″ catheter ([1]; treatment 2 hrs (100% PG, 9% MP, 2% PP), time 36 days): 0.387 mg/1″ catheter
- Total PP released (mg)/1″ catheter ([1]; treatment 2 hrs (100% PG, 9% MP, 2% PP), time 50 days): 0.404 mg/1″ catheter
- Total PP released (mg)/1″ catheter ([1]; treatment 2 hrs (100% PG, 9% MP, 2% PP), time 67 days): 0.417 mg/1″ catheter
- Total PP released (mg)/1″ catheter ([1]; treatment 2 hrs (100% PG, 9% MP, 2% PP), time 81 days): 0.429 mg/1″ catheter
- Total PP released (mg)/1″ catheter ([1]; treatment 4 hrs (100% PG, 9% MP, 2% PP), time 1 hour): 0.007 mg/1″ catheter
- Total PP released (mg)/1″ catheter ([1]; treatment 4 hrs (100% PG, 9% MP, 2% PP), time 3 hours): 0.069 mg/1″ catheter
- Total PP released (mg)/1″ catheter ([1]; treatment 4 hrs (100% PG, 9% MP, 2% PP), time 7 hours): 0.138 mg/1″ catheter
- Total PP released (mg)/1″ catheter ([1]; treatment 4 hrs (100% PG, 9% MP, 2% PP), time 24 hours): 0.208 mg/1″ catheter
- Total PP released (mg)/1″ catheter ([1]; treatment 4 hrs (100% PG, 9% MP, 2% PP), time 4 days): 0.254 mg/1″ catheter
- Total PP released (mg)/1″ catheter ([1]; treatment 4 hrs (100% PG, 9% MP, 2% PP), time 5 days): 0.293 mg/1″ catheter
- Total PP released (mg)/1″ catheter ([1]; treatment 4 hrs (100% PG, 9% MP, 2% PP), time 6 days): 0.326 mg/1″ catheter
- Total PP released (mg)/1″ catheter ([1]; treatment 4 hrs (100% PG, 9% MP, 2% PP), time 8 days): 0.362 mg/1″ catheter
- Total PP released (mg)/1″ catheter ([1]; treatment 4 hrs (100% PG, 9% MP, 2% PP), time 11 days): 0.393 mg/1″ catheter
- Total PP released (mg)/1″ catheter ([1]; treatment 4 hrs (100% PG, 9% MP, 2% PP), time 13 days): 0.424 mg/1″ catheter
- Total PP released (mg)/1″ catheter ([1]; treatment 4 hrs (100% PG, 9% MP, 2% PP), time 15 days): 0.45 mg/1″ catheter
- Total PP released (mg)/1″ catheter ([1]; treatment 4 hrs (100% PG, 9% MP, 2% PP), time 18 days): 0.476 mg/1″ catheter
- Total PP released (mg)/1″ catheter ([1]; treatment 4 hrs (100% PG, 9% MP, 2% PP), time 22 days): 0.497 mg/1″ catheter
- Total PP released (mg)/1″ catheter ([1]; treatment 4 hrs (100% PG, 9% MP, 2% PP), time 29 days): 0.518 mg/1″ catheter
- Total PP released (mg)/1″ catheter ([1]; treatment 4 hrs (100% PG, 9% MP, 2% PP), time 36 days): 0.539 mg/1″ catheter
- Total PP released (mg)/1″ catheter ([1]; treatment 4 hrs (100% PG, 9% MP, 2% PP), time 50 days): 0.569 mg/1″ catheter
- Total PP released (mg)/1″ catheter ([1]; treatment 4 hrs (100% PG, 9% MP, 2% PP), time 67 days): 0.585 mg/1″ catheter
- Total PP released (mg)/1″ catheter ([1]; treatment 4 hrs (100% PG, 9% MP, 2% PP), time 81 days): 0.6 mg/1″ catheter
- Total PP released (mg)/1″ catheter ([1]; treatment 9 hrs (100% PG, 9% MP, 2% PP), time 1 hour): 0.082 mg/1″ catheter
- Total PP released (mg)/1″ catheter ([1]; treatment 9 hrs (100% PG, 9% MP, 2% PP), time 3 hours): 0.124 mg/1″ catheter
- Total PP released (mg)/1″ catheter ([1]; treatment 9 hrs (100% PG, 9% MP, 2% PP), time 7 hours): 0.175 mg/1″ catheter
- Total PP released (mg)/1″ catheter ([1]; treatment 9 hrs (100% PG, 9% MP, 2% PP), time 24 hours): 0.221 mg/1″ catheter
- Total PP released (mg)/1″ catheter ([1]; treatment 9 hrs (100% PG, 9% MP, 2% PP), time 4 days): 0.279 mg/1″ catheter
- Total PP released (mg)/1″ catheter ([1]; treatment 9 hrs (100% PG, 9% MP, 2% PP), time 5 days): 0.331 mg/1″ catheter
- Total PP released (mg)/1″ catheter ([1]; treatment 9 hrs (100% PG, 9% MP, 2% PP), time 6 days): 0.375 mg/1″ catheter
- Total PP released (mg)/1″ catheter ([1]; treatment 9 hrs (100% PG, 9% MP, 2% PP), time 8 days): 0.422 mg/1″ catheter
- Total PP released (mg)/1″ catheter ([1]; treatment 9 hrs (100% PG, 9% MP, 2% PP), time 11 days): 0.463 mg/1″ catheter
- Total PP released (mg)/1″ catheter ([1]; treatment 9 hrs (100% PG, 9% MP, 2% PP), time 13 days): 0.5 mg/1″ catheter
- Total PP released (mg)/1″ catheter ([1]; treatment 9 hrs (100% PG, 9% MP, 2% PP), time 15 days): 0.533 mg/1″ catheter
- Total PP released (mg)/1″ catheter ([1]; treatment 9 hrs (100% PG, 9% MP, 2% PP), time 18 days): 0.565 mg/1″ catheter
- Total PP released (mg)/1″ catheter ([1]; treatment 9 hrs (100% PG, 9% MP, 2% PP), time 22 days): 0.594 mg/1″ catheter
- Total PP released (mg)/1″ catheter ([1]; treatment 9 hrs (100% PG, 9% MP, 2% PP), time 29 days): 0.622 mg/1″ catheter
- Total PP released (mg)/1″ catheter ([1]; treatment 9 hrs (100% PG, 9% MP, 2% PP), time 36 days): 0.65 mg/1″ catheter
- Total PP released (mg)/1″ catheter ([1]; treatment 9 hrs (100% PG, 9% MP, 2% PP), time 50 days): 0.687 mg/1″ catheter
- Total PP released (mg)/1″ catheter ([1]; treatment 9 hrs (100% PG, 9% MP, 2% PP), time 67 days): 0.708 mg/1″ catheter
- Total PP released (mg)/1″ catheter ([1]; treatment 9 hrs (100% PG, 9% MP, 2% PP), time 81 days): 0.727 mg/1″ catheter
- time until perfused through the membrane and detected in the lower chamber ([2]; 0.60 mm polycarbonate membrane, 37° C.): within two hours
- PP conc [2, 3]: 0.01 mg/mL
- Total mg PP in 10.5 ml lower chamber [2, 3]: 0.105 mg
